Results: patent US9012431B2, “Boron-containing small molecules as anti-inflammatory agents” (Anacor Pharmaceuticals, Inc., priority 2008, dated 2015)

What was measured:
IFN-γ = assay: Cytokine assay, IFN-γ release from PBMC; type: cell-based; conditions: human PBMC, 20 ug/mL PHA, supernatant at 24 hours
Description: (§1) The ability of the compounds described herein to inhibit pro-inflammatory cytokines or phsophodiesterases were tested.
(§2) Frozen human peripheral blood mononucleocytes (PBMC) were thawed and centrifuged. Cryopreservation media was aspirated off of the cell pellet, and the cells were resuspended in fresh culture media (CM) comprising RPMI 1640 and 10% FBS in 96 well plates. Test article was dissolved in DMSO to form a 10 mM sample (DMSO, 100%). The 10 mM samples were diluted to 100 μM in CM (DMSO, 1%), then further diluted to 10, 1, 0.1, 0.01 μM in 200 μL of CM (n=3). […] IL-23 was assayed using a commercial ELISA kit (R&D Systems).

IL-10 = assay: Cytokine assay, IL-10 release from PBMC; type: cell-based; conditions: human PBMC, 20 ug/mL PHA, supernatant at 48 hours
Description: as §1, §2

TNF-α = assay: Cytokine assay, TNF-α release from PBMC; type: cell-based; conditions: 1 μg/mL LPS, supernatant at 24 hours
Description: as §1, §2

[1] = system: T1, PDE4 partially purified from human U-937 myeloid leukemia cells; assay: PDE4 Assay (enzyme from U-937 cells, [3H]cAMP); type: biochemical; conditions: PDE4 from U-937 cells, Tris buffer pH 7.5, 20 minutes at 25° C.
T1 construct: PDE4 partially purified from human U-937 myeloid leukemia cells was used
Description: Test article and/or vehicle was incubated with 0.2 mg enzyme and 1 mM cAMP containing 0.01 mM [3H]cAMP in Tris buffer pH 7.5 for 20 minutes at 25° C. The reaction was terminated by boiling for 2 minutes and the resulting AMP is converted to adenosine by addition of 10 mg/ml snake venom nucleotidase and further incubation at 37° C. for 10 minutes. Unhydrolyzed cAMP is bound to AG1-X2 resin, and remaining [3H]Adenosine in the aqueous phase is quantitated by scintillation counting.

IL-2 = assay: Cytokine assay, IL-2 release from PBMC; type: cell-based; conditions: human PBMC, 20 ug/mL PHA, supernatant at 24 hours
Description: as §1, §2

IL-5 = assay: Cytokine assay, IL-5 release from PBMC; type: cell-based; conditions: human PBMC, 20 ug/mL PHA, supernatant at 48 hours
Description: as §1, §2

Row | SMILES | IC50 (IFN-γ) | IC50 (IL-10) | IC50 (TNF-α; Homo sapiens, PBMC, 24 h) | IC50 [1] | IC50 (IL-2) | IC50 (IL-5) | IC50 (TNF-α; human PBMC)
1 | N#Cc1ccc(Oc2ccc3c(c2)COB3O)cc1OCC(=O)N1CCOCC1 [D41, 4-(1-Hydroxy-1,3-dihydro-benzo[c][1,2]oxaborol-5-yloxy)-2-(2-morpholin-4-yl-2-oxo-ethoxy)-benzonitrile] | < 1000 nM | 1 to 4 µM | 1000 to 4000 nM | < 1000 nM | < 1000 nM | 1 to 4 µM | –
2 | COc1ccc(C#N)c(Oc2ccc3c(c2)COB3O)n1 [D47, 2-(1-Hydroxy-1,3-dihydro-benzo[c][1,2]oxaborol-5-yloxy)-6-methoxy-nicotinonitrile] | < 1000 nM | 1 to 4 µM | < 1000 nM | < 1000 nM | < 1000 nM | < 1 µM | –
3 | CCOC(=O)c1ccc(Oc2ccc3c(c2)COB3O)c(F)c1 [D51, 5-(2-Fluoro-4-ethoxycarbonylphenoxy)-1-hydroxy-2,1-benzoxaborole] | 1000 to 4000 nM | 1 to 4 µM | 1000 to 4000 nM | < 1000 nM | 1000 to 4000 nM | 4 to 10 µM | –
4 | COC(=O)c1cc(F)c(Oc2ccc3c(c2)COB3O)c(F)c1 [D52, 5-(2,6-Difluoro-4-methoxycarbonylphenoxy)-1-hydroxy-2,1-benzoxaborole] | 4000 to 10000 nM | > 10 µM | > 10000 nM | 1000 to 4000 nM | 4000 to 10000 nM | > 10 µM | –
5 | CCOC(=O)c1cc(F)c(Oc2ccc3c(c2)COB3O)cc1Cl [D53, 5-(5-Chloro-2-fluoro-4-ethoxycarbonylphenoxy)-1-hydroxy-2,1-benzoxaborole] | < 1000 nM | 1 to 4 µM | < 1000 nM | < 1000 nM | < 1000 nM | 1 to 4 µM | –
6 | CCOC(=O)c1ccc(Oc2ccc3c(c2)COB3O)c(C(F)(F)F)c1 [D54, 5-(4-Eethoxycarbonyl-2-trifluoromethylphenoxy)-1-hydroxy-2,1-benzoxaborole] | < 1000 nM | < 1 µM | < 1000 nM | < 1000 nM | < 1000 nM | 1 to 4 µM | –
7 | CC(C)OC(=O)c1ccc(Oc2ccc3c(c2)COB3O)c(F)c1 [D55, 5-(2-Fluoro-4-isopropyloxycarbonylphenoxy)-1-hydroxy-2,1-benzoxaborole] | < 1000 nM | 4 to 10 µM | 4000 to 10000 nM | < 1000 nM | < 1000 nM | 1 to 4 µM | –
8 | CCOC(=O)c1cc(F)c(Oc2ccc3c(c2)COB3O)c(F)c1 [D56, 5-(2,6-Difluoro-4-ethoxycarbonylphenoxy)-1-hydroxy-2,1-benzoxaborole] | > 10000 nM | > 10 µM | > 10000 nM | 1000 to 4000 nM | 4000 to 10000 nM | > 10 µM | –
9 | CCOC(=O)c1ccc(Oc2ccc3c(c2)COB3O)cc1Cl [D57, 5-(3-Chloro-4-ethoxycarbonylphenoxy)-1-hydroxy-2,1-benzoxaborole] | 1000 to 4000 nM | > 10 µM | 4000 to 10000 nM | < 1000 nM | < 1000 nM | < 1 µM | –
10 | CCOC(=O)c1cc(Cl)c(Oc2ccc3c(c2)COB3O)cc1F [D58, 5-(2-Chloro-5-fluoro-4-ethoxycarbonylphenoxy)-1-hydroxy-2,1-benzoxaborole] | < 1000 nM | > 10 µM | 1000 to 4000 nM | < 1000 nM | < 1000 nM | < 1 µM | –
11 | CCN(CC)C(=O)c1ccc(Oc2ccc3c(c2)COB3O)nc1 [D62, N,N-diethyl-6-(1-hydroxy-1,3-dihydrobenzo[c][1,2]-5-yloxy) nicotinamide] | < 1000 nM | 1 to 4 µM | < 1000 nM | 1000 to 4000 nM | < 1000 nM | 1 to 4 µM | –
12 | CCCOC(=O)c1ccc(Oc2ccc3c(c2)COB3O)nc1 [D66, n-Propyl 6-(1-hydroxy-1,3-dihydrobenzo[c][1,2]oxaborol-5-yloxy)nicotinate] | < 1000 nM | < 1 µM | < 1000 nM | < 1000 nM | < 1000 nM | < 1 µM | –
13 | COC(=O)c1ccc(Oc2ccc3c(c2)COB3O)cc1 [D71, 4-(1-Hydroxy-1,3-dihydro-benzo[c][1,2]oxaborol-5-yloxy)-benzoic acid methyl ester] | 1000 to 4000 nM | > 10 µM | 1000 to 4000 nM | < 1000 nM | 1000 to 4000 nM | 4 to 10 µM | –
14 | CCOC(=O)c1ccc(Oc2ccc3c(c2)COB3O)cc1 [D72, 4-(1-Hydroxy-1,3-dihydro-benzo[c][1,2]oxaborol-5-yloxy)-benzoic acid ethyl ester] | 1000 to 4000 nM | > 10 µM | 1000 to 4000 nM | < 1000 nM | 1000 to 4000 nM | 4 to 10 µM | –
15 | CC(C)OC(=O)c1ccc(Oc2ccc3c(c2)COB3O)cc1 [D74, 4-(1-Hydroxy-1,3-dihydro-benzo[c][1,2]oxaborol-5-yloxy)-benzoic acid isopropyl ester] | < 1000 nM | 1 to 4 µM | 1000 to 4000 nM | < 1000 nM | < 1000 nM | 1 to 4 µM | –
16 | O=C(NCc1ccccc1)c1ccc(Oc2ccc3c(c2)COB3O)cc1 [D76, N-Benzyl-4-(1-hydroxy-1,3-dihydro-benzo[c][1,2]oxaborol-5-yloxy)-benzamide] | 1000 to 4000 nM | 1 to 4 µM | 1000 to 4000 nM | < 1000 nM | < 1000 nM | 4 to 10 µM | –
17 | O=C(NCc1ccccn1)c1ccc(Oc2ccc3c(c2)COB3O)cc1 [D78, 4-(1-Hydroxy-1,3-dihydro-benzo[c][1,2]oxaborol-5-yloxy)-N-pyridin-2-ylmethyl-benzamide] | 1000 to 4000 nM | 1 to 4 µM | 1000 to 4000 nM | < 1000 nM | 1000 to 4000 nM | 1 to 4 µM | –
18 | N#Cc1ccc(Oc2ccc3c(c2)COB3O)nc1 [D82, 6-(1-hydroxy-1,3-dihydrobenzo[c][1,2]oxaborol-5-yloxy)nicotinonitrile] | < 1000 nM | < 1 µM | – | < 1000 nM | < 1000 nM | 1 to 4 µM | < 1000 nM
19 | N#Cc1ccc(Oc2ccc3c(c2)COB3O)c(F)c1 [D84, 3-fluoro-4-(1-hydroxy-1,3-dihydrobenzo[c][1,2]oxaborol-5-yloxy)benzonitrile] | 4000 to 10000 nM | 1 to 4 µM | 1000 to 4000 nM | < 1000 nM | 1000 to 4000 nM | 4 to 10 µM | –
20 | Cc1cc(C#N)ccc1Oc1ccc2c(c1)COB2O [D85, 3-methyl-4-(1-hydroxy-1,3-dihydrobenzo[c][1,2]oxaborol-5-yloxy)benzonitrile] | < 1000 nM | 1 to 4 µM | < 1000 nM | < 1000 nM | < 1000 nM | < 1 µM | –
21 | COc1ccc(Oc2ccc3c(c2)COB3O)cc1OC [D94, 5-(3,4-dimethoxyphenoxy)benzo[c][1,2]oxaborol-1 (3H)-ol] | 1000 to 4000 nM | > 10 µM | 1000 to 4000 nM | < 1000 nM | 1000 to 4000 nM | 1 to 4 µM | –
22 | CS(=O)(=O)c1ccc(Oc2ccc3c(c2)COB3O)cc1 [D103, 5-(4-(methylsulfonyl)phenoxy)benzo[c][1,2]oxaborol-1 (3H)-ol] | < 1000 nM | 1 to 4 µM | 1000 to 4000 nM | 1000 to 4000 nM | < 1000 nM | < 1 µM | –
23 | CC(C)S(=O)(=O)c1ccc(Oc2ccc3c(c2)COB3O)cc1 [D104, 5-(4-(isopropylsulfonyl)phenoxy)benzo[c][1,2]oxaborol-1 (3H)-ol] | 1000 to 4000 nM | 4 to 10 µM | 1000 to 4000 nM | < 1000 nM | 1000 to 4000 nM | 4 to 10 µM | –
24 | CCS(=O)(=O)c1ccc(Oc2ccc3c(c2)COB3O)cc1 [D105, 5-(4-(ethylsulfonyl)phenoxy)benzo[c][1,2]oxaborol-1 (3H)-ol] | 1000 to 4000 nM | 1 to 4 µM | 1000 to 4000 nM | 1000 to 4000 nM | 1000 to 4000 nM | 4 to 10 µM | –
25 | N#Cc1ccc(NCCO)nc1Oc1ccc2c(c1)COB2O [D106, 2-(1-Hydroxy-1,3-dihydro-benzo[c][1,2]oxaborol-5-yloxy)-6-(2-hydroxy-ethylamino)-nicotinonitrile] | < 1000 nM | 4 to 10 µM | < 1000 nM | < 1000 nM | < 1000 nM | < 1 µM | –
26 | COc1nc(Oc2ccc3c(c2)COB3O)ccc1C(N)=O [D112, 6-(1-Hydroxy-1,3-dihydro-benzo[c][1,2]oxaborol-5-yloxy)-2-methoxy-nicotinamide] | < 1000 nM | < 1 µM | < 1000 nM | < 1000 nM | < 1000 nM | 1 to 4 µM | –
27 | N#Cc1ccc(Oc2ccc3c(c2)COB3O)nc1NCCOCc1ccccc1 [D113, 2-(2-Benzyloxy-ethylamino)-6-(1-hydroxy-1,3-dihydro-benzo[c][1,2]oxaborol-5-yloxy)-nicotinonitrile] | < 1000 nM | 4 to 10 µM | < 1000 nM | < 1000 nM | < 1000 nM | < 1 µM | –
